Data on twelve compounds can be found in patent publication US10544090B2, “Anthraquinone analogs and methods of making and using thereof” (Georgia State University Research Foundation, Inc., priority 2012, dated 2020).

Structures are written as SMILES. Where two headings read alike, the source gives them in different places.

In one data set the test system is MOLT4. Kind of data set: MTT cytotoxicity evaluation of series 1 and 2 rhein analogues, MOLT4 (Tables 3, 4). The conditions noted are these: Homo sapiens, MOLT-4, read-out: IC50 (μM) against MOLT4.
The next data set concerns mice. Put plainly: Toxicity in mice. The conditions noted are these: single injection at a dose of 15/kg. Format: in vivo. On the procedure: FIG. 6 is a table showing the estimated treatment doses and maximum tolerated dose (MTD) of MG1 in mice as compared with doxorubicin.
Toxicity was also evaluated in mice. […] Subsequently, a single injection of MG1 at a dose of 400 mg/kg was administered via injection.
[…]. Toxicity was also evaluated in mice. […] Subsequently, a single injection of MG1 at a dose of 400 mg/kg was administered via injection.

For another data set, the system named is KB. Put plainly: MTT cytotoxicity assay, KB (Table 2). The settings on record: 48 h incubation; for IC50: read-out: IC50 (μM) against KB. It is filed as cell-based. On the procedure:
(§1) The in vitro cytotoxicity studies of the synthesized compounds were performed in three different cell lines (HeLa, Hek, and KB). The activities of the herein described analogues were compared to that of rhein itself and doxorubicin. Due to the poor solubility of the compounds, all of the solutions used for biological testing were prepared using DMSO as solvent.
On the technique in general: Tetrazolium assays rely on reduction of a dye to a coloured formazan, in cell work by metabolically active cells.

For a further data set, the system named is DNA damage. Kind of data set: Comet images, mechanism of cancer cell death. It is filed as cell-based.
In data set [1] the test system is HeLa. Put plainly: MTT cytotoxicity evaluation of series 1 and 2 rhein analogues, HeLa (Tables 3, 4). Format: cell-based. The settings on record: Homo sapiens, HeLa; MTT; Tables 3 and 4; read-out: IC50 (μM) against HeLa.
Data set [2] has as its system HeLa. Put plainly: MTT cytotoxicity assay, HeLa (Table 2). The conditions noted are these: for IC50 / IC50 (μM) against HeLa: Table 2; for cytotoxicity against HeLa cells compared to rhein: in words. On the procedure:
as §1

In the next data set the test system is Hek. Put plainly: MTT cytotoxicity assay, Hek (Table 2). Format: cell-based. The conditions noted are these: for IC50: read-out: IC50 (μM) against Hek. On the procedure: as §1
A further data set concerns human NBMM cells. Put plainly: WST cytotoxic assay on normal bone marrow mononuclear cells. It is filed as cell-based. The conditions noted are these: concentration of 1-2 μM. On the procedure: FIGS. 2a-2i are graphs showing the cytotoxicity of various Rhein analogues. Acute lymphoblastic leukemia (ALL) cell lines EU-1 (p53 normal) and EU-8 (p53 null) as well as normal human BM stroma cells were incubated with different concentrations of Rhein analogues as indicated for 24 h. Viability of cells was detected by Water soluble Tetrazolium (WST) dye assay. Data represent the mean percentage ±SD of the surviving cells (as compared to untreated controls) from three independent experiments.
The cytotoxic and inhibitory effects of the compounds described herein on normal human BM cells in vitro, as compared with doxorubicin was evaluated.

[3] abbreviates: Homo sapiens, HeLa, 48 h, read-out: IC50 (μM) against HeLa, MTT, 48 h incubation.
Where [4] appears, read: read-out: IC50 (μM) against HeLa, MTT, 48 h incubation.
[5] abbreviates: Homo sapiens, HEK293, 48 h incubation.

By IC50 is commonly meant the midpoint of a concentration-inhibition curve.

On to `COc1cccc2c1C(=O)c1c(O)c3c(c(O)c1C2=O)C[C@@](O)(C(=O)CO)C[C@@H]3O[C@H]1C[C@H](N)[C@H](O)[C@H](C)O1` [Doxorubicin, reference compound], for which the 50% inhibitory concentration (IC50) in the data set on MOLT4 stood at 0.04 µM; with KB (Homo sapiens, KB), 0.4 µM; in the data set with HeLa [1] it was 0.98 µM; in the data set on HeLa [2] (setting [3]) it was 1.4 µM; in the data set on HeLa [2] (setting [4]) it was 1.5 µM; with Hek (setting [5]), 0.15 µM. Besides, in the data set on mice, the death of mice entry is “death of all mice at day 7 due to cardiac toxicity”. For the same compound, the “mechanism of cancer cell death (DNA damage)” value with DNA damage is given as “induces cancer cell death through DNA damage”. The “human NBMM cells survived after treatment” value in the data set on human NBMM cells was 40-50%.

Take `O=C(CI)Nc1cc(O)c2c(c1)C(=O)c1cccc(O)c1C2=O` [Compound 7, 1,8-Dihydroxy-3-(2′-iodo-acetamido)-anthraquinone]: the IC50 with MOLT4 came to 10 µM; in the data set on KB (Homo sapiens, KB, 48 h), 9 µM; in the data set on HeLa [1], 17 µM; with HeLa [2] (setting [3]), 10 µM; in the data set with Hek (setting [5]) it was 2 µM.

Take `COc1cccc2c1C(=O)c1c(OC)cc(NC(=O)CBr)cc1C2=O` [Compound 13, 1,8-dimethoxy-3-(2′-bromo-acetamido)-anthraquinone]: the 50% inhibitory concentration (IC50) came out at 38 µM with KB (Homo sapiens, KB, 48 h); 8 µM in the data set on HeLa [2] (setting [3]); 2.3 µM in the data set on Hek (setting [5]).

As to `O=C(CBr)Nc1cc(O)c2c(c1)C(=O)c1cccc(O)c1C2=O` [Compound 6, 1,8-Dihydroxy-3-(2′-bromo-acetamido)-anthraquinone], the IC50 with KB (Homo sapiens, KB, 48 h) stood at 15 µM; in the data set on HeLa [2] (setting [3]) it was 40 µM; in the data set with Hek (setting [5]), 8 µM. Besides, the “times more potent than rhein against HeLa” value in the data set on HeLa [2] (ratio of IC50 values) is listed as 2.5 fold.

`O=C(CI)NCCCOCCOCCOCCCNC(=O)c1cc(O)c2c(c1)C(=O)c1cccc(O)c1C2=O` [Compound 23, 1,8-Dihydroxy-3-(18′-iodo-aceta-6′,9′,12′-trioxa-2′,16′-tridecanediamido)-anthraquinone]: the IC50 in the data set on KB was determined as 8 µM; in the data set on HeLa [2] (setting [4]) it was 5.8 µM; in the data set on Hek (48 h incubation), 4 µM.

Turning to `O=C(CCl)NCCCCNC(=O)c1cc(O)c2c(c1)C(=O)c1cccc(O)c1C2=O` [Compound 17, 1,8-Dihydroxy-3-(9′-chloro-aceta-2′,7′diamido)-anthraquinone], the results for the IC50 in the data set with KB, in the data set with HeLa [2] (setting [4]) and in the data set on Hek (48 h incubation) were 19 µM, 16 µM and 8 µM, respectively.

Take `COc1cccc2c1C(=O)c1c(OC)cc(NC(=O)CI)cc1C2=O` [Compound 14, 1,8-dimethoxy-3-(2′-iodo-acetamido)-anthraquinone]: the “IC50 (μM) against KB” value in the data set with KB is listed as “low micro molar”. For the same compound, the half-maximal inhibitory concentration (IC50) with KB (Homo sapiens, KB, 48 h) came out at 10 µM; with HeLa [2] (setting [3]), 2.5 µM; in the data set with Hek (setting [5]), 1.4 µM. Besides, in the data set with HeLa [2] (MTT, 48 h incubation), the “IC50 (μM) against HeLa” value is recorded as “low micro molar”. In addition, the “cytotoxicity against HeLa cells compared to rhein” value (“cytotoxicity … compared to rhein” below) in the data set on HeLa [2] is recorded as “significant improvement”. The “IC50 (μM) against Hek” value with Hek (48 h incubation) is on record as “low micro molar”.

On to `O=C(CBr)NCCCCNC(=O)c1cc(O)c2c(c1)C(=O)c1cccc(O)c1C2=O` [Compound 18, 1,8-Dihydroxy-3-(9′-bromo-aceta-2′,7′diamido)-anthraquinone], for which the “IC50 (μM) against KB” value with KB is on record as “low micro molar”. Also, the IC50 in the data set with KB came to 4.8 µM; with HeLa [2] (setting [4]) it was 3 µM; in the data set on Hek (48 h incubation), 1.4 µM. Besides, the “IC50 (μM) against HeLa” value in the data set with HeLa [2] (MTT, 48 h incubation) was “low micro molar”. Also, the “cytotoxicity … compared to rhein” value with HeLa [2] is on record as “significant improvement”. The “IC50 (μM) against Hek” value in the data set with Hek (48 h incubation) was “low micro molar”.

Take `O=C(O)c1cc(O)c2c(c1)C(=O)c1cccc(O)c1C2=O` [Rhein, reference compound]: the IC50 in the data set on MOLT4 is 37 µM; in the data set on KB it was more than 100 µM; in the data set with KB (Homo sapiens, KB, 48 h), not below 100 µM; with HeLa [1] it was more than 100 µM; in the data set with HeLa [2] (setting [3]) it was 100 µM; with HeLa [2] (setting [4]), more than 100 µM. Besides, the half-inhibitory concentration (IC50) in the data set on Hek (setting [5]) is more than 100 µM.

Turning to `O=C(CCl)Nc1cc(O)c2c(c1)C(=O)c1cccc(O)c1C2=O` [Compound 5, 1,8-Dihydroxy-3-(2′-chloro-acetamido)-anthraquinone], the “IC50 (μM) against KB” value in the data set with KB was “low micro molar”. The concentration for half-maximal inhibition (IC50) came to 4.5 µM in the data set with KB (Homo sapiens, KB, 48 h); 4 µM with HeLa [2] (setting [3]); 4 µM with Hek (setting [5]). For the same compound, the “IC50 (μM) against HeLa” value in the data set on HeLa [2] (MTT, 48 h incubation) is reported as “low micro molar”. For the same compound, in the data set on HeLa [2], the “cytotoxicity … compared to rhein” value is listed as “significant improvement”. In addition, the “IC50 (μM) against Hek” value with Hek (48 h incubation) was “low micro molar”.

In the case of `O=C(CCl)NCCCOCCOCCOCCCNC(=O)c1cc(O)c2c(c1)C(=O)c1cccc(O)c1C2=O` [Compound 21, 1,8-Dihydroxy-3-(18′-chloro-aceta-6′,9′,12′-trioxa-2′,16′-tridecanediamido)-anthraquinone], the IC50 in the data set with KB is 21 µM; in the data set on HeLa [2] (setting [4]) it was 14 µM; in the data set on Hek (48 h incubation), 8 µM.

`O=C(CBr)NCCCOCCOCCOCCCNC(=O)c1cc(O)c2c(c1)C(=O)c1cccc(O)c1C2=O` [Compound 22, 1,8-Dihydroxy-3-(18′-bromo-aceta-6′,9′,12′-trioxa-2′,16′-tridecanediamido)-anthraquinone]: the results for the 50% inhibitory concentration (IC50) with KB, with HeLa [2] (setting [4]) and in the data set with Hek (48 h incubation) were 9 µM, 7 µM and 2.2 µM, respectively.
